Results from patent publication US10590116B2, “3-indolyl furanoids as inhibitors of matrix metalloproteinase-9 for prevention of gastric ulcer and other inflammatory diseases” (Council of Scientific & Industrial Research, priority 2017, dated 2020).
Entries after “also recorded” stand apart in the source; their conditions may differ.

Assays:
[1] = Toxicity studies through repeat daily dosing; type: in vivo
Experimental: FIG. 4 gives the In vivo toxicity test. Male and female BALB/c mice (n=10) received indicated doses of compound 5 by daily gavage. Control mice received vehicle (olive oil). Body weights were determined 4 days before the start of the treatment and then throughout the period of treatment until day 25. Data points represent mean body weight.
The purpose of this study was to assess the efficacy of prolonged oral compound 5 treatment and ascertaining adverse impact, if any. […] The female mice were, on an average, 4 g lighter than male mice which is consistent with the common sex-specific weight difference.

[2] = system: gastric epithelium and submucosa; assay: Haematoxylin-eosin staining of gastric tissue sections; type: in vivo; settings: 50 mg/kg body weight, indomethacin ulcerated mice
Excerpt: To understand the fine information about the physical condition (the level of damage and/or intactness) of cells tissues under observation, different tissue samples were fixed in 10% formalin and embedded in paraffin. Tissue sections were deparaffinized with xylene and rehydrated with descending alcohol series. The sections were cut using microtome, and stained with hematoxylin and eosin, or subjected to Terminal deoxynucleotidyl transferase-mediated dUTP Nick End Labeling (TUNEL) assay by using a in situ apoptosis detection kit. Fixation, permeabilization, and staining were carried out in exact parallel to ensure comparative significance among normal, ulcerated and compound 5 treated groups. […] Images at 10× and 40× magnification were captured using Camedia software (E-20P 5.0 Megapixel) and processed under Adobe Photoshop version 7.0 (FIG. 1B).
Tissue sections were stained with hematoxylin and eosin stain. Fixation, permeabilization, and staining were carried out in parallel in normal, ulcerated and compound 5 treated groups to ensure comparative significance among different treatment. TUNEL assay is used for detection and quantification of apoptosis in gastric tissues, based on labelling of DNA strand breaks. Terminal deoxynucleotidyl transferase-mediated dUTP Nick End Labeling (TUNEL) assay was performed by using an in situ apoptosis detection kit. […]

MMP-2 = molecular target: T1, MMP-2 (Mus musculus, UniProt P33434); assay: Gelatin zymography of gastric tissue extract, MMP-2; type: in vivo, mice; settings: pretreatment before indomethacin
T1 construct: Tissue extracts were electrophoresed in SDS-PAGE containing gelatin under nonreducing conditions; from tissue; host or cells: mouse stomach (gastric tissue) PBS / Triton X-100 extracts
T1 sequence (P33434 110-662): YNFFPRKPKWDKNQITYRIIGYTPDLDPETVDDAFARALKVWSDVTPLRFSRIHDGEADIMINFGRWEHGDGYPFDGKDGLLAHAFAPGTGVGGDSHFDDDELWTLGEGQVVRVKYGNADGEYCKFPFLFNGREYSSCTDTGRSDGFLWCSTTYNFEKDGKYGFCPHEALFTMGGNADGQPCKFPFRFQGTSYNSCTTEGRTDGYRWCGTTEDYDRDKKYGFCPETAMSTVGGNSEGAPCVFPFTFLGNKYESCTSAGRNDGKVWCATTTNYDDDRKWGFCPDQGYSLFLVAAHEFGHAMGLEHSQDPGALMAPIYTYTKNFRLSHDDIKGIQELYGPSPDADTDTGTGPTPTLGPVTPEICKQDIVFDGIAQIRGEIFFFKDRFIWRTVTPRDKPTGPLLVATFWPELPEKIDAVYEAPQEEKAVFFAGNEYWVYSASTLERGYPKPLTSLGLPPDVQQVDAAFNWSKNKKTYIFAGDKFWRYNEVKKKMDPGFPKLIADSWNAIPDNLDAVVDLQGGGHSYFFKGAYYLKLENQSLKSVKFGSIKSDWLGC
Experimental: The whole stomach (including fundic, body and pyloric parts) was washed with saline and used for extraction. Stomach except connective tissue layer (named as gastric tissue) were suspended in 10 mM phosphate buffer saline (PBS) containing protease inhibitors, minced and incubated for 10 min at 4° C. After centrifugation at 12,000 g for 15 min, the supernatant was collected as PBS extracts. The pellet was then extracted in lysis buffer (10 mM Tris-HCl pH 8.0, 150 mM NaCl, 1% Triton X-100 and protease inhibitors) and centrifuged at 12,000 g for 15 min to obtain TX extracts. Both PBS and TX extracts were preserved at −70° C. and used in future studies. Proteins were estimated either by Lowry method or by Bradford assay.
For the analysis of MMP-9 activity, tissue extracts were electrophoresed in 8% SDS-PAGE containing 1 mg/mL gelatin under nonreducing conditions. Equal amounts of tissue extracts (70 μg of total protein) were loaded in all the lanes. […] Quantification of zymographic bands was performed using densitometry linked to proper software (Lab Image, Kapelan Gmbh, Leipzig, Germany). […]
Tissue extracts were electrophoresed in SDS-PAGE containing gelatin under nonreducing conditions. […] Gelatinolytic activity came as negative staining and was quantified by Lab Image software.

[3] = 150 or 300 mg/kg body weight/day for 25 days, daily gavage

SMILES: COc1cccc2[nH]cc(-c3cc(-c4ccccc4)oc3-c3ccccc3)c12 [compound 5, 4-methoxy-3-(2,5-diphenylfuran-3-yl)-1H-indole]
- body weight, treated versus control groups [1, 3]: no differences in body weight
- clinical signs of toxicity (lethargy, abdominal distension, fur loss, hunching) [1, 3]: no clinical signs of toxicity
- toxicity, general statement ([1]; mouse, in vivo): non-toxic
- gastric injury, haematoxylin-eosin staining [2]: minimum injury and intact epithelial layer; also recorded: prevents indomethacin induced gastric injury
- MMP-2 activity in gastric tissue extract (MMP-2): remained unaltered
